These results are taken from US20230303540A1 (Merck Sharp & Dohme LLC, priority 2020, published 2023).

Molecules are shown by their SMILES.

The target of this assay is GST-tagged truncated human mutant G2019S LRRK2 (Homo sapiens, UniProt Q5S007, G2019S). Description: LRRK2 G2019S Km ATP LanthaScreen assay. The class given is biochemical. The settings on record: 134 μM ATP (Km ATP), LRRKtide substrate, mean IC50 values; read-out: LRRK2 pIC50 (converted). As for the experimental part: Unless otherwise noted, all reactions are magnetically stirred. Unless otherwise noted, when diethyl ether is used in the experiments described below, it is Fisher ACS certified material and is stabilized with BHT. Unless otherwise noted, “concentrated” and/or “solvent removed under reduced pressure” means evaporating the solvent from a solution or mixture using a rotary evaporator or vacuum pump. Unless otherwise noted, flash chromatography is carried out on a Teledyne Isco (Lincoln, NE), Analogix (Burlington, WI), or Biotage (Stockholm, SWE) automated chromatography system using a commercially available cartridge as the column. Columns may be purchased from Teledyne Isco, Analogix, Biotage, Varian (Palo Alto, CA), or Supelco (Bellefonte, PA) and are usually filled with silica gel as the stationary phase. Reverse phase prep-HPLC conditions, where used, can be found at the end of each experimental section. Aqueous solutions were concentrated on a Genevac (Ipswich, ENG) or by freeze-drying/lyophilization. Unless otherwise noted, all LRRK2 pIC50 data presented in tables refers to the LRRK2 G2019S Km ATP LanthaScreen™ assay (Life Technologies Corp., Carlsbad, CA) that is described in the Biological Assay section.
The IC50 values reported herein were measured as follows.
Biological Assay: LRRK2 Km ATP LanthaScreen™ Assay
The LRRK2 kinase activity reported herein as IC50 values was determined with LanthaScreen™ technology from Life Technologies Corporation (Carlsbad, CA) using GST-tagged truncated human mutant G2019S LRRK2 in the presence of the fluorescein-labeled peptide substrate LRRKtide, also from Life Technologies. The data presented for the Km ATP LanthaScreen™ Assay represents mean IC50 values based on several test results and may have reasonable deviations depending on the specific conditions and reagents used. Assays were performed in the presence of 134 μM ATP (Km ATP). Upon completion, the assay was stopped and phosphorylated substrate detected with a terbium (Tb)-labeled anti-pERM antibody (cat. no. PV4898). The compound dose response was prepared by diluting a 10 mM stock of compound to a maximum concentration of 9.99 μM in 100% dimethylsulfoxide followed by custom fold serial dilution in dimethylsulfoxide nine times. Twenty nanoliters of each dilution was spotted via a Labcyte Echo onto a 384-well black-sided plate (Corning 3575) followed by 15 μl of a 1.25 nM enzyme solution in 1× assay buffer (50 mM Tris pH 8.5, 10 mM MgCl2, 0.01% Brij-35, 1 mM EGTA, 2 mM dithiothreitol, 0.05 mM sodium orthovanadate). Following a 15-minute incubation at room temperature, the kinase reaction was started with the addition of 5 μl of 400 nM fluorescein-labeled LRRKtide peptide substrate and 134 μM ATP solution in 1× assay buffer. The reaction was allowed to progress at ambient temperature for 90 minutes. The reaction was then stopped by the addition of 20 μl of TR-FRET Dilution Buffer (Life Technologies, Carlsbad, CA) containing 2 nM Tb-labeled anti-phospho LRRKtide antibody and 10 mM EDTA (Life Technologies, Carlsbad, CA). After an incubation of 1 hour at room temperature, the plate was read on an EnVision multimode plate reader (Perkin Elmer, Waltham, MA) with an excitation wavelength of 337 nm (Laser) and a reading emission at both 520 and 495 nm. Compound IC50s were interpolated from nonlinear regression best fits of the log of the final compound concentration, plotted as a function of the 520/495-nm emission ratio using Activity base. Abase uses a 4 parameter (4P) logistic fit based on the Levenberg-Marquardt algorithm.
In general terms: In TR-FRET formats the signal depends on donor and acceptor labels being close together.
`Cn1nc(Cl)cc1Nc1ncc2cc(Cl)c(N3CCN(C4(C)COCC4O)CC3)cc2n1` (stereo not shown): the IC50 is 5.97 nM.
The result for `Cn1nc(Cl)cc1Nc1ncc2cc(Cl)c(N3CCN([C@@]4(C)COC[C@H]4O)CC3)cc2n1` (single isomer, unassigned) reads 5.97 nM; that for `Cc1c(Nc2cc3cc(N4CCN([C@]5(C)COC[C@@H]5O)CC4)c(Cl)cc3cn2)cnn1C1CC1` (single isomer, unassigned) [Ex-1.1, (3R,4R) or (3S,4S) 4-(4-(7-chloro-3-((1-cyclopropyl-5-methyl-1H-pyrazol-4-yl)amino)isoquinolin-6-yl)piperazin-1-yl)-4-methyltetrahydrofuran-3-ol], 0.716 nM; that for `Cc1c(Nc2cc3cc(N4CCN([C@]5(C)COC[C@@H]5O)CC4)c(Cl)cc3cn2)cnn1C1CC1` (single isomer, unassigned) [Ex-1.2, (3R,4R) or (3S,4S) 4-(4-(7-chloro-3-((1-cyclopropyl-5-methyl-1H-pyrazol-4-yl)amino)isoquinolin-6-yl)piperazin-1-yl)-4-methyltetrahydrofuran-3-ol], 8.41 nM.
The result for `Cc1c(Nc2ncc3cc(Cl)c(N4CCN(C5CCCC5C#N)CC4)cc3n2)cnn1C1CC1` (single isomer, unassigned) [Ex-1.6, (3S,4S or 3R,4R)-2-(4-{6-chloro-2-[(1-cyclopropyl-5-methyl-1H-pyrazol-4-yl)amino]quinazolin-7-yl}piperazin-1-yl)cyclopentane-1-carbonitrile] reads 1.89 nM; that for `Cc1c(Nc2ncc3cc(Cl)c(N4CCN(C5CCCC5C#N)CC4)cc3n2)cnn1C1CC1` (single isomer, unassigned) [Ex-1.7, (3S,4S or 3R,4R)-2-(4-{6-chloro-2-[(1-cyclopropyl-5-methyl-1H-pyrazol-4-yl)amino]quinazolin-7-yl}piperazin-1-yl)cyclopentane-1-carbonitrile], 6.91 nM.
The result for `CCn1ncc(Nc2ncc3ccc(N4CCCC4C)cc3n2)c1C` (single isomer, unassigned) [Ex-1.8, (S) or (R) N-(1-ethyl-5-methyl-1H-pyrazol-4-yl)-7-(2-methylpyrrolidin-1-yl)quinazolin-2-amine] reads 16 nM; that for `CCn1ncc(Nc2ncc3ccc(N4CCCC4C)cc3n2)c1C` (single isomer, unassigned) [Ex-1.9, (S) or (R) N-(1-ethyl-5-methyl-1H-pyrazol-4-yl)-7-(2-methylpyrrolidin-1-yl)quinazolin-2-amine], 36.1 nM.
Regarding `CCn1ncc(Nc2ncc3ccc(N4CCC4C)cc3n2)c1C` (single isomer, unassigned) [Ex-1.10, (S) or (R) N-(1-ethyl-5-methyl-1H-pyrazol-4-yl)-7-(2-methylazetidin-1-yl)quinazolin-2-amine], the IC50 is 13.3 nM.
For the compound `CCn1ncc(Nc2ncc3ccc(N4CCC4C)cc3n2)c1C` (single isomer, unassigned) [Ex-1.11, (S) or (R) N-(1-ethyl-5-methyl-1H-pyrazol-4-yl)-7-(2-methylazetidin-1-yl)quinazolin-2-amine], the IC50 is 33.2 nM.
As to `CC1(N2CCN(c3cc4nc(Nc5cnn(C6CC6)c5Cl)ncc4cc3Cl)CC2)COCC1O` (single isomer, unassigned) [Ex-1.45, (3S,4S or 3R,4R)-4-(4-{6-chloro-2-[(5-chloro-1-cyclopropyl-1H-pyrazol-4-yl)amino]quinazolin-7-yl}piperazin-1-yl)-4-methyloxolan-3-ol], the IC50 was 21.3 nM.
On to `CC1(N2CCN(c3cc4nc(Nc5cnn(C6CC6)c5Cl)ncc4cc3Cl)CC2)COCC1O` (single isomer, unassigned) [Ex-1.46, (3S,4S or 3R,4R)-4-(4-{6-chloro-2-[5-chloro-1-cyclopropyl-1H-pyrazol-4-yl)amino]quinazolin-7-yl}piperazin-1-yl)-4-methyloxolane-3-ol], for which the IC50 was 0.625 nM.
As to `Cc1cc2cnc(Nc3cnn(C)c3C)nc2cc1N1CCN(C2(C)COCC2O)CC1` (single isomer, unassigned) [Ex-2.2, (3S,4S or 3R,4R)-4-(4-{2-[(1,5-dimethyl-1H-pyrazol-4-yl)amino]-6-methylquinazolin-7-yl}piperazin-1-yl)-4-methyloxolane-3-ol], the IC50 is 36 nM.
The same measure for `Cc1cc2cnc(Nc3cnn(C)c3C)nc2cc1N1CCN(C2COCC2O)CC1` (single isomer, unassigned) [Ex-2.3, (3S,4S or 3R,4R)-4-(4-{2-[(1,5-dimethyl-1H-pyrazol-4-yl)amino]-6-methylquinazolin-7-yl}piperazin-1-yl)oxolan-3-ol]: 1.77 nM; for `Cc1cc2cnc(Nc3cnn(C45CC(C4)C5)c3C)nc2cc1N1CCN(C2(C)CCOC2)CC1` (single isomer, unassigned) [Ex-2.4, (3S,4S or 3R,4R)-N-(1-(bicyclo[1.1.1]pentan-1-yl)-5-methyl-1H-pyrazol-4-yl)-6-methyl-7-(4-(3-methyltetrahydrofuran-3-yl)piperazin-1-yl)quinazolin-2-amine]: 0.279 nM; for `COCC12CC(n3cc(Nc4ncc5cc(Cl)c(N6CCC7(CC6)COC(CO)C7)cc5n4)cn3)(C1)C2` (single isomer, unassigned) [Ex-3.16, (R) or (S)-{8-[6-chloro-2-({1-[3-(methoxymethyl)bicyclo[1.1.1]pentan-1-yl]-1H-pyrazol-4-yl}amino)quinazolin-7-yl]-2-oxa-8-azaspiro[4.5]decan-3-yl}methanol]: 0.218 nM.
The same measure for `COCC12CC(n3cc(Nc4ncc5cc(Cl)c(N6CCC7(CC6)COC(CO)C7)cc5n4)cn3)(C1)C2` (single isomer, unassigned) [Ex-3.17, (R) or (S)-{8-[6-chloro-2-({1-[3-(methoxymethyl)bicyclo[1.1.1]pentan-1-yl]-1H-pyrazol-4-yl}amino)quinazolin-7-yl]-2-oxa-8-azaspiro[4.5]decan-3-yl}methanol]: 2.28 nM; for `Cc1c(Nc2ncc3cc(Cl)c(N4CCN(C5(C)COCC5O)CC4)cc3n2)cnn1C` (single isomer, unassigned) [Ex-3.37, (3R,4R) or (3S,4S) 4-(4-{6-chloro-2-[(1,5-dimethyl-1H-pyrazol-4-yl)amino]quinazolin-7-yl}piperazin-1-yl)-4-methyloxolan-3-ol]: 29.9 nM.
For the compound `C[C@]1(O)[C@@H]2CC[C@H]1CN(c1cc3nc(Nc4cnn(C5CC5(F)F)c4Cl)ncc3cc1Cl)C2` (single isomer, unassigned) [Ex-3.41, (R) or (S) (8-syn)-3-(6-chloro-2-{[5-chloro-1-(2,2-difluorocyclopropyl)-1H-pyrazol-4-yl]amino}quinazolin-7-yl)-8-methyl-3-azabicyclo[3.2.1]octan-8-ol], the IC50 was 23 nM.
The same measure for `CN(C)c1cc2nc(Nc3cnn(C4CC4(F)F)c3Cl)ncc2cc1Cl` (single isomer, unassigned) [Ex-3.42, (R) or (S) 6-chloro-N~2~-[5-chloro-1-(2,2-difluorocyclopropyl)-1H-pyrazol-4-yl]-N~7~,N~7~-dimethylquinazoline-2,7-diamine]: 7.37 nM; for `Cc1c(Nc2ncc3cc(Cl)c(N4CCN(C5(C)COCC5O)CC4)cc3n2)cnn1C` (single isomer, unassigned) [Ex-3.43, (3R,4R) or (3S,4S) 4-(4-{6-chloro-2-[(1,5-dimethyl-1H-pyrazol-4-yl)amino]quinazolin-7-yl}piperazin-1-yl)-4-methyloxolan-3-ol]: 0.438 nM.
For `Cc1c(Nc2ncc3cc(Cl)c(N4CCC(C)(O)C(C)C4)cc3n2)cnn1C1CC1` (single isomer, unassigned) [Ex-3.47, (3R,4R) or (3S,4S) or (3R,4S) or (3S,4R) 1-{6-chloro-2-[(1-cyclopropyl-5-methyl-1H-pyrazol-4-yl)amino]quinazolin-7-yl}-3,4-dimethylpiperidin-4-ol], the IC50 was 10.2 nM.
